Experimental data reported in US9920063B2, “Melampomagnolide B derivatives” (Board of Trustees of the University of Arkansas, priority 2013, dated 2018).
Like-named read-outs stand apart in the source and are kept apart here.

Columns and labels:
[1] = tested on: CCRF-CEM
[2] = tested on: MOLT-4
[3] = tested on: RPMI-8226
[4] = tested on: NCI-H226
[5] = tested on: SF-268
[6] = tested on: SNB-19
[7] = tested on: MALME-3M
[8] = tested on: SK-MEL-2
[9] = tested on: SK-MEL-28
[10] = tested on: UACC-62
[11] = tested on: OVCAR-3
[12] = tested on: OVCAR-4
[13] = tested on: SK-OV-3
[14] = tested on: 786-0
[15] = tested on: UO-31
[16] = tested on: PC-3
[17] = tested on: DU-145
[18] = tested on: MDA-MB-231/ATCC
[19] = tested on: AML 052308 cells; assay: Antileukemic activity against AML 052308 cells in culture
Procedure: For each compound, in vitro cell culture studies were performed in which a range of concentrations (0.25-20 μM) was tested for cytotoxicity against leukemia cell lines, primary leukemia specimens and normal bone marrow controls.

## C=C1C(=O)O[C@H]2[C@H]1CC/C(COC(=O)c1cc3ccccc3[nH]1)=C\CC[C@@]1(C)O[C@@H]21 [BS-1-28]
[1]
  CC50: > 100000 nM
[1]; CCRF-CEM, Log10 Concentration −4.0
  Percent Growth: −37%
[1]; CCRF-CEM, Log10 Concentration −5.0
  Percent Growth: −15%
[1]; CCRF-CEM, Log10 Concentration −6.0
  Percent Growth: 3%
[1]; CCRF-CEM, Log10 Concentration −7.0
  Percent Growth: 90%
[1]; CCRF-CEM, Log10 Concentration −8.0
  Percent Growth: 99%
[1]; CCRF-CEM, NCI five dose
  GI50: 286 nM
  TGI: 1.45E−6
[1]; leukemia cell line CCRF-CEM
  GI50: 288 nM
[2]
  CC50: > 100000 nM
[2]; MOLT-4, Log10 Concentration −4.0
  Percent Growth: −32%
[2]; MOLT-4, Log10 Concentration −5.0
  Percent Growth: −3%
[2]; MOLT-4, Log10 Concentration −6.0
  Percent Growth: 62%
[2]; MOLT-4, Log10 Concentration −7.0
  Percent Growth: 103%
[2]; MOLT-4, Log10 Concentration −8.0
  Percent Growth: 105%
[2]; MOLT-4, NCI five dose
  GI50: 1510 nM
  TGI: 8.89E−6
[3]
  CC50: > 100000 nM
[3]; RPMI-8226, Log10 Concentration −4.0
  Percent Growth: −34%
[3]; RPMI-8226, Log10 Concentration −5.0
  Percent Growth: −26%
[3]; RPMI-8226, Log10 Concentration −6.0
  Percent Growth: −8%
[3]; RPMI-8226, Log10 Concentration −7.0
  Percent Growth: 92%
[3]; RPMI-8226, Log10 Concentration −8.0
  Percent Growth: 97%
[3]; RPMI-8226, NCI five dose
  GI50: 264 nM
  TGI: 8.27E−7
[4]
  CC50: 7010 nM
[4]; NCI-H226, Log10 Concentration −4.0
  Percent Growth: −71%
[4]; NCI-H226, Log10 Concentration −5.0
  Percent Growth: −73%
[4]; NCI-H226, Log10 Concentration −6.0
  Percent Growth: 74%
[4]; NCI-H226, Log10 Concentration −7.0
  Percent Growth: 88%
[4]; NCI-H226, Log10 Concentration −8.0
  Percent Growth: 92%
[4]; NCI-H226, NCI five dose
  GI50: 1470 nM
  TGI: 3.21E−6
[5]
  CC50: 6500 nM
[5]; SF-268, Log10 Concentration −4.0
  Percent Growth: −85%
[5]; SF-268, Log10 Concentration −5.0
  Percent Growth: −81%
[5]; SF-268, Log10 Concentration −6.0
  Percent Growth: 83%
[5]; SF-268, Log10 Concentration −7.0
  Percent Growth: 96%
[5]; SF-268, Log10 Concentration −8.0
  Percent Growth: 98%
[5]; SF-268, NCI five dose
  GI50: 1590 nM
  TGI: 3.22E−6
[6]
  CC50: 7330 nM
[6]; SNB-19, Log10 Concentration −4.0
  Percent Growth: −64%
[6]; SNB-19, Log10 Concentration −5.0
  Percent Growth: −70%
[6]; SNB-19, Log10 Concentration −6.0
  Percent Growth: 81%
[6]; SNB-19, Log10 Concentration −7.0
  Percent Growth: 92%
[6]; SNB-19, Log10 Concentration −8.0
  Percent Growth: 57%
[6]; SNB-19, NCI five dose
  GI50: 1600 nM
  TGI: 3.93E−6
[7]
  CC50: 6070 nM
[7]; MALME-3M, Log10 Concentration −4.0
  Percent Growth: −82%
[7]; MALME-3M, Log10 Concentration −5.0
  Percent Growth: −87%
[7]; MALME-3M, Log10 Concentration −6.0
  Percent Growth: 82%
[7]; MALME-3M, Log10 Concentration −7.0
  Percent Growth: 91%
[7]; MALME-3M, Log10 Concentration −8.0
  Percent Growth: 91%
[7]; MALME-3M, NCI five dose
  GI50: 1560 nM
  TGI: 3.07E−6
[8]
  CC50: 7830 nM
[8]; SK-MEL-2, Log10 Concentration −4.0
  Percent Growth: −88%
[8]; SK-MEL-2, Log10 Concentration −5.0
  Percent Growth: −67%
[8]; SK-MEL-2, Log10 Concentration −6.0
  Percent Growth: 96%
[8]; SK-MEL-2, Log10 Concentration −7.0
  Percent Growth: 113%
[8]; SK-MEL-2, Log10 Concentration −8.0
  Percent Growth: 103%
[8]; SK-MEL-2, NCI five dose
  GI50: 1920 nM
  TGI: 3.88E−6
[9]
  CC50: 5740 nM
[9]; SK-MEL-28, Log10 Concentration −4.0
  Percent Growth: −93%
[9]; SK-MEL-28, Log10 Concentration −5.0
  Percent Growth: 47%
[9]; SK-MEL-28, Log10 Concentration −6.0
  Percent Growth: 67%
[9]; SK-MEL-28, Log10 Concentration −7.0
  Percent Growth: 101%
[9]; SK-MEL-28, Log10 Concentration −8.0
  Percent Growth: 90%
[9]; SK-MEL-28, NCI five dose
  GI50: 1280 nM
  TGI: 2.72E−6
[10]
  CC50: 6980 nM
[10]; UACC-62, Log10 Concentration −4.0
  Percent Growth: −15%
[10]; UACC-62, Log10 Concentration −5.0
  Percent Growth: −73%
[10]; UACC-62, Log10 Concentration −6.0
  Percent Growth: 75%
[10]; UACC-62, Log10 Concentration −7.0
  Percent Growth: 91%
[10]; UACC-62, Log10 Concentration −8.0
  Percent Growth: 97%
[10]; UACC-62, NCI five dose
  GI50: 1470 nM
  TGI: 3.21E−6
[11]
  CC50: 2660 nM
[11]; OVCAR-3, Log10 Concentration −4.0
  Percent Growth: −95%
[11]; OVCAR-3, Log10 Concentration −5.0
  Percent Growth: −92%
[11]; OVCAR-3, Log10 Concentration −6.0
  Percent Growth: −15%
[11]; OVCAR-3, Log10 Concentration −7.0
  Percent Growth: 50%
[11]; OVCAR-3, Log10 Concentration −8.0
  Percent Growth: 19%
[11]; OVCAR-3, NCI five dose
  TGI: 5.92E−7
[12]
  CC50: 8430 nM
[12]; OVCAR-4, Log10 Concentration −4.0
  Percent Growth: −84%
[12]; OVCAR-4, Log10 Concentration −5.0
  Percent Growth: −58%
[12]; OVCAR-4, Log10 Concentration −6.0
  Percent Growth: 48%
[12]; OVCAR-4, Log10 Concentration −7.0
  Percent Growth: 88%
[12]; OVCAR-4, Log10 Concentration −8.0
  Percent Growth: 4%
[12]; OVCAR-4, NCI five dose
  TGI: 2.85E−6
[13]
  CC50: 11700 nM
[13]; SK-OV-3, Log10 Concentration −4.0
  Percent Growth: −86%
[13]; SK-OV-3, Log10 Concentration −5.0
  Percent Growth: −47%
[13]; SK-OV-3, Log10 Concentration −6.0
  Percent Growth: 77%
[13]; SK-OV-3, Log10 Concentration −7.0
  Percent Growth: 90%
[13]; SK-OV-3, Log10 Concentration −8.0
  Percent Growth: 82%
[13]; SK-OV-3, NCI five dose
  GI50: 1650 nM
  TGI: 4.47E−6
[14]
  CC50: 9010 nM
[14]; 786-0, Log10 Concentration −4.0
  Percent Growth: −94%
[14]; 786-0, Log10 Concentration −5.0
  Percent Growth: −90%
[14]; 786-0, Log10 Concentration −6.0
  Percent Growth: 11%
[14]; 786-0, Log10 Concentration −7.0
  Percent Growth: 102%
[14]; 786-0, Log10 Concentration −8.0
  Percent Growth: 96%
[14]; 786-0, NCI five dose
  GI50: 371 nM
  TGI: 1.28E−6
[15]
  CC50: 5000 nM
[15]; UO-31, Log10 Concentration −4.0
  Percent Growth: −89%
[15]; UO-31, Log10 Concentration −5.0
  Percent Growth: −92%
[15]; UO-31, Log10 Concentration −6.0
  Percent Growth: 49%
[15]; UO-31, Log10 Concentration −7.0
  Percent Growth: 74%
[15]; UO-31, Log10 Concentration −8.0
  Percent Growth: 72%
[15]; UO-31, NCI five dose
  GI50: 887 nM
  TGI: 2.21E−6
[16]
  CC50: 6450 nM
[16]; PC-3, Log10 Concentration −4.0
  Percent Growth: −94%
[16]; PC-3, Log10 Concentration −5.0
  Percent Growth: −79%
[16]; PC-3, Log10 Concentration −6.0
  Percent Growth: 73%
[16]; PC-3, Log10 Concentration −7.0
  Percent Growth: 87%
[16]; PC-3, Log10 Concentration −8.0
  Percent Growth: 88%
[16]; PC-3, NCI five dose
  GI50: 1420 nM
  TGI: 3.62E−4
[17]
  CC50: 5200 nM
[17]; DU-145, Log10 Concentration −4.0
  Percent Growth: −98%
[17]; DU-145, Log10 Concentration −5.0
  Percent Growth: −95%
[17]; DU-145, Log10 Concentration −6.0
  Percent Growth: 63%
[17]; DU-145, Log10 Concentration −7.0
  Percent Growth: 98%
[17]; DU-145, Log10 Concentration −8.0
  Percent Growth: 91%
[17]; DU-145, NCI five dose
  GI50: 1210 nM
  TGI: 2.51E−6
[18]
  CC50: 8560 nM
[18]; MDA-MB-231/ATCC, Log10 Concentration −4.0
  Percent Growth: −73%
[18]; MDA-MB-231/ATCC, Log10 Concentration −5.0
  Percent Growth: −58%
[18]; MDA-MB-231/ATCC, Log10 Concentration −6.0
  Percent Growth: 56%
[18]; MDA-MB-231/ATCC, Log10 Concentration −7.0
  Percent Growth: 87%
[18]; MDA-MB-231/ATCC, Log10 Concentration −8.0
  Percent Growth: 89%
[18]; MDA-MB-231/ATCC, NCI five dose
  GI50: 1140 nM
  TGI: 3.12E−6
[19]; AML 052308 cells
  Fold more potent than parthenolide: around 3 fold
[19]; AML 052308 cells in culture
  EC50: 2200 nM
